Data published in patent publication US20180249707A1, “METHOD OF CONTROLLING ALGAE IN A BODY OF WATER” (priority 2013, published 2018).

Tests used:
Cladophora sp. = assay: 14-day flask exposure of Cladophora sp. to BADA; assay type: cell-based, C. kosterae
Procedure: The experiment was conducted for 14 days and was initiated using 100 mL BG-11 medium contained in 200 mL flasks. […] The solution was heated in a water bath and diluted to 70 mg/L using warmed deionized water. The concentration of DMSO was approximately 350 mg/L in the test beakers. Cutrine®-Plus stock solution was made at 50 mg/L using deionized water. Three replicates of each exposure concentration, along with three replicates of an untreated reference were tested. Each sample was maintained at room temperature with 12-hours of light and 12-h dark photoperiod. […]

Microcystis aeruginosa = assay: 14-day flask exposure of Microcystis aeruginosa to BADA; assay type: cell-based
Procedure: The experiment was conducted for 14 days and was initiated using 100 mL BG-11 medium contained in 200 mL flasks. […] The experiment was initiated by exposing the algae to 0.2, 0.4, 0.8, 1.0, 1.2, 1.4, 1.8, and 2.0 ppm (mg/L) as BADA, 0.5 Cu/L Cutrine®-Plus. The solution was heated in a water bath and diluted to 70 mg/L using warmed deionized water. Cutrine®-Plus stock solution was made at 50 mg/L using deionized water. Three replicates of each exposure concentration, along with three replicates of an untreated reference were tested. Each sample was maintained at room temperature with 12-hours of light and 12-h dark photoperiod. The chlorophyll a concentrations of Microcystis aeruginosa through the 14 day exposure after exposure to concentrations of BADA and Cutrine®-Plus. The results are shown in TABLES 5, and 6, which show the chlorophyll a concentration and the cell density, respectively.

How did the “Extracted chlorphylll a concentrations of C. kosterae cultures” value (shortened to “Extracted chlorphylll a concentrations”) (Cladophora sp.; BADA 0.2 ppm, day 0 (initial)) turn out when `CCCCCCCCCCCCN(CCCN)CCCN` [BADA, N,N-bis-(3-aminopropyl) dodecylamine] was run?
The value was 14.21 μg/sample.

And the “Extracted chlorphylll a concentrations” value (Cladophora sp.; BADA 0.2 ppm, day 14)?
The value was 11.01 μg/sample.

What about the “Extracted chlorphylll a concentrations” value (Cladophora sp.; BADA 0.4 ppm, day 0 (initial)) of the same compound?
Its value is 14.21 μg/sample.

And the “Extracted chlorphylll a concentrations” value (Cladophora sp.; BADA 0.4 ppm, day 14)?
The value was 13.15 μg/sample.

And the “Extracted chlorphylll a concentrations” value (Cladophora sp.; BADA 0.8 ppm, day 0 (initial))?
Its value is 14.21 μg/sample.

And the “Extracted chlorphylll a concentrations” value (Cladophora sp.; BADA 0.8 ppm, day 14)?
The value was 12.54 μg/sample.

What about the “Extracted chlorphylll a concentrations” value (Cladophora sp.; BADA 1.0 ppm, day 0 (initial)) of the same compound?
The value was 14.21 μg/sample.

What about the “Extracted chlorphylll a concentrations” value (Cladophora sp.; BADA 1.0 ppm, day 14) of the same compound?
Its value is 13.26 μg/sample.

What about the “Extracted chlorphylll a concentrations” value (Cladophora sp.; BADA 1.2 ppm, day 0 (initial)) of the same compound?
The value was 14.21 μg/sample.

What about the “Extracted chlorphylll a concentrations” value (Cladophora sp.; BADA 1.2 ppm, day 14) of the same compound?
The value was 11.15 μg/sample.

And the “Extracted chlorphylll a concentrations” value (Cladophora sp.; BADA 1.4 ppm, day 0 (initial))?
Its value is 14.21 μg/sample.

And the “Extracted chlorphylll a concentrations” value (Cladophora sp.; BADA 1.4 ppm, day 14)?
Its value is 8.63 μg/sample.

And the “Extracted chlorphylll a concentrations” value (Cladophora sp.; BADA 1.8 ppm, day 0 (initial))?
The value was 14.21 μg/sample.

And the “Extracted chlorphylll a concentrations” value (Cladophora sp.; BADA 1.8 ppm, day 14)?
Its value is 8.70 μg/sample.

What about the “Extracted chlorphylll a concentrations” value (Cladophora sp.; BADA 2.0 ppm, day 0 (initial)) of the same compound?
Its value is 14.21 μg/sample.

And the “Extracted chlorphylll a concentrations” value (Cladophora sp.; BADA 2.0 ppm, day 14)?
The value was 8.32 μg/sample.

And the “effectiveness as an algaecide on Cladophora sp.” value (Cladophora sp.; at concentrations comparable to Cutrine-Plus)?
Its value is “effective”.

What about the “Chlorophyll a content of M. aeruginosa compared to untreated control algae” value (Microcystis aeruginosa; 0.2 to 2.0 ppm (mg/L), by 15 days after start, p<0.01) of the same compound?
The value was “reduced”.

What about the “Cell density of M. aeruginosa cultures” value (Microcystis aeruginosa; BADA 0.2 ppm, day 0 (initial)) of the same compound?
The value was 5.7E+05 cells/mL.

What about the “In vivo chlorophyll a concentrations of M. aeruginosa cultures” value (shortened to “In vivo chlorophyll a concentrations”) (Microcystis aeruginosa; BADA 0.2 ppm, day 0 (initial)) of the same compound?
Its value is 0.90 µg/L.

What about the “In vivo chlorophyll a concentrations” value (Microcystis aeruginosa; BADA 0.2 ppm, day 3) of the same compound?
The value was 0.28 µg/L.

What about the “Cell density of M. aeruginosa cultures” value (Microcystis aeruginosa; BADA 0.2 ppm, day 7) of the same compound?
Its value is under 1E+04 cells/mL.

And the “In vivo chlorophyll a concentrations” value (Microcystis aeruginosa; BADA 0.2 ppm, day 7)?
The value was 0.06 µg/L.

What about the “Cell density of M. aeruginosa cultures” value (Microcystis aeruginosa; BADA 0.2 ppm, day 14) of the same compound?
The value was under 1E+04 cells/mL.

What about the “In vivo chlorophyll a concentrations” value (Microcystis aeruginosa; BADA 0.2 ppm, day 14) of the same compound?
Its value is 0.02 µg/L.

What about the “Cell density of M. aeruginosa cultures” value (Microcystis aeruginosa; BADA 0.4 ppm, day 0 (initial)) of the same compound?
Its value is 5.7E+05 cells/mL.

And the “In vivo chlorophyll a concentrations” value (Microcystis aeruginosa; BADA 0.4 ppm, day 0 (initial))?
The value was 0.90 µg/L.

And the “In vivo chlorophyll a concentrations” value (Microcystis aeruginosa; BADA 0.4 ppm, day 3)?
Its value is 0.23 µg/L.

And the “Cell density of M. aeruginosa cultures” value (Microcystis aeruginosa; BADA 0.4 ppm, day 7)?
Its value is under 1E+04 cells/mL.

And the “In vivo chlorophyll a concentrations” value (Microcystis aeruginosa; BADA 0.4 ppm, day 7)?
The value was 0.03 µg/L.

And the “Cell density of M. aeruginosa cultures” value (Microcystis aeruginosa; BADA 0.4 ppm, day 14)?
Its value is under 1E+04 cells/mL.

What about the “In vivo chlorophyll a concentrations” value (Microcystis aeruginosa; BADA 0.4 ppm, day 14) of the same compound?
Its value is 0.02 µg/L.

What about the “Cell density of M. aeruginosa cultures” value (Microcystis aeruginosa; BADA 0.8 ppm, day 0 (initial)) of the same compound?
The value was 5.7E+05 cells/mL.

And the “In vivo chlorophyll a concentrations” value (Microcystis aeruginosa; BADA 0.8 ppm, day 0 (initial))?
The value was 0.90 µg/L.

And the “In vivo chlorophyll a concentrations” value (Microcystis aeruginosa; BADA 0.8 ppm, day 3)?
The value was 0.26 µg/L.

And the “Cell density of M. aeruginosa cultures” value (Microcystis aeruginosa; BADA 0.8 ppm, day 7)?
The value was under 1E+04 cells/mL.

And the “In vivo chlorophyll a concentrations” value (Microcystis aeruginosa; BADA 0.8 ppm, day 7)?
Its value is 0.03 µg/L.

And the “Cell density of M. aeruginosa cultures” value (Microcystis aeruginosa; BADA 0.8 ppm, day 14)?
Its value is under 1E+04 cells/mL.

And the “In vivo chlorophyll a concentrations” value (Microcystis aeruginosa; BADA 0.8 ppm, day 14)?
Its value is 0.02 µg/L.

What about the “Cell density of M. aeruginosa cultures” value (Microcystis aeruginosa; BADA 1.0 ppm, day 0 (initial)) of the same compound?
Its value is 5.7E+05 cells/mL.

And the “In vivo chlorophyll a concentrations” value (Microcystis aeruginosa; BADA 1.0 ppm, day 0 (initial))?
Its value is 0.90 µg/L.

What about the “In vivo chlorophyll a concentrations” value (Microcystis aeruginosa; BADA 1.0 ppm, day 3) of the same compound?
The value was 0.31 µg/L.

What about the “Cell density of M. aeruginosa cultures” value (Microcystis aeruginosa; BADA 1.0 ppm, day 7) of the same compound?
The value was under 1E+04 cells/mL.

And the “In vivo chlorophyll a concentrations” value (Microcystis aeruginosa; BADA 1.0 ppm, day 7)?
Its value is 0.05 µg/L.

And the “Cell density of M. aeruginosa cultures” value (Microcystis aeruginosa; BADA 1.0 ppm, day 14)?
The value was under 1E+04 cells/mL.

What about the “In vivo chlorophyll a concentrations” value (Microcystis aeruginosa; BADA 1.0 ppm, day 14) of the same compound?
Its value is 0.02 µg/L.

What about the “Cell density of M. aeruginosa cultures” value (Microcystis aeruginosa; BADA 1.2 ppm, day 0 (initial)) of the same compound?
Its value is 5.7E+05 cells/mL.

And the “In vivo chlorophyll a concentrations” value (Microcystis aeruginosa; BADA 1.2 ppm, day 0 (initial))?
The value was 0.90 µg/L.

And the “In vivo chlorophyll a concentrations” value (Microcystis aeruginosa; BADA 1.2 ppm, day 3)?
The value was 0.29 µg/L.

What about the “Cell density of M. aeruginosa cultures” value (Microcystis aeruginosa; BADA 1.2 ppm, day 7) of the same compound?
Its value is under 1E+04 cells/mL.

What about the “In vivo chlorophyll a concentrations” value (Microcystis aeruginosa; BADA 1.2 ppm, day 7) of the same compound?
The value was 0.04 µg/L.

What about the “Cell density of M. aeruginosa cultures” value (Microcystis aeruginosa; BADA 1.2 ppm, day 14) of the same compound?
Its value is under 1E+04 cells/mL.

And the “In vivo chlorophyll a concentrations” value (Microcystis aeruginosa; BADA 1.2 ppm, day 14)?
The value was 0.02 µg/L.

What about the “Cell density of M. aeruginosa cultures” value (Microcystis aeruginosa; BADA 1.4 ppm, day 0 (initial)) of the same compound?
Its value is 5.7E+05 cells/mL.

And the “In vivo chlorophyll a concentrations” value (Microcystis aeruginosa; BADA 1.4 ppm, day 0 (initial))?
The value was 0.90 µg/L.

And the “In vivo chlorophyll a concentrations” value (Microcystis aeruginosa; BADA 1.4 ppm, day 3)?
Its value is 0.29 µg/L.

What about the “Cell density of M. aeruginosa cultures” value (Microcystis aeruginosa; BADA 1.4 ppm, day 7) of the same compound?
The value was under 1E+04 cells/mL.
